Data from PubChem BioAssay (NCI).
Where “and” joins values, the source holds several entries; their conditions need not be identical. Equal entries are not always repeated.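 Values below derive from 48-hour exposures of cells grown in 96-well plates, with endpoints linearly interpolated between the two concentrations bracketing the appropriate inhibition level. The concentration for 50% growth inhibition is given as GI50. Definition used: TGI = concentration required for complete inhibition of growth.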

Experiments:
Assay in all cases: inhibition of tumour cell growth, NCI panel, 48 h
PC-3 prostate = tested on: PC-3 prostate
COLO 205 colon = tested on: COLO 205 colon
A498 renal = tested on: A498 renal
HT29 colon = tested on: HT29 colon
DU-145 prostate = tested on: DU-145 prostate
MALME-3M melanoma = tested on: MALME-3M melanoma
T-47D breast = tested on: T-47D breast
NCI/ADR-RES ovarian = tested on: NCI/ADR-RES ovarian
RXF 393 renal = tested on: RXF 393 renal
RPMI-8226 leukemia = tested on: RPMI-8226 leukemia

| Compound | GI50 (PC-3 prostate) [µM] | TGI (PC-3 prostate) | GI50 (COLO 205 colon) | TGI (COLO 205 colon) [µM] | GI50 (A498 renal) | TGI (A498 renal) | GI50 (HT29 colon) | TGI (HT29 colon) | GI50 (DU-145 prostate) [µM] | TGI (DU-145 prostate) [µM] | GI50 (MALME-3M melanoma) | TGI (MALME-3M melanoma) [µM] | GI50 (T-47D breast) [µM] | TGI (T-47D breast) [µM] | GI50 (NCI/ADR-RES ovarian) | GI50 (RXF 393 renal) | TGI (RXF 393 renal) | GI50 (RPMI-8226 leukemia) [µM] | TGI (RPMI-8226 leukemia) [µM] | TGI (NCI/ADR-RES ovarian) [µM] |
| --- | --- | --- | --- | --- | --- | --- | --- | --- | --- | --- | --- | --- | --- | --- | --- | --- | --- | --- | --- | --- |
| COC(=O)c1oc2c(C(=O)/C=C/c3ccc(OC)cc3)c(OCCCN3CCCCC3)ccc2c1C | 2.39 | 7.02 µM | 1.51 µM | 3.13 | 1.44 µM | 4.54 µM | 1.49 µM | 3.22 µM | 1.18 | 2.57 | 1.51 µM | 3.3 | 1.42 | 4.89 | 2.31 µM | 0.066 µM | 0.487 µM | 1.72 | 4 |  |
| O=[N+]([O-])c1ccc2[nH]cc(-c3c4ccccc4cc4[nH]c5ccc([N+](=O)[O-])cc5c34)c2c1 | 1.9 | 4.43 µM | 2.46 µM | 7 | 1.53 µM | 4.25 µM | 3.62 µM | 11.3 µM | 2.26 | 5.09 | 2.32 µM | 6.77 | 1.71 | 4.74 | 2.91 µM | 2.03 µM | 4.73 µM | 2.27 | 6.32 | 11.5 |
| C=C1C(=O)O[C@H]2[C@H]1CC/C(COC(=O)CCC(=O)OC/C1=C/CC[C@@]3(C)O[C@H]3[C@H]3OC(=O)C(=C)[C@@H]3CC1)=C\CC[C@@]1(C)O[C@@H]21 | 2.58 | 7.86 µM | 0.455 µM | 1.74 | 10.5 µM | 23.6 µM | 1.46 µM | 3.03 µM | 1.71 | 3.53 | 1.14 µM | 2.88 | 1.06 | 3.67 | 14 µM | 0.661 µM | 2.17 µM | 1.22 | 4.16 | 40.5 |
| COc1cc2c(/C=C3\C(=O)Nc4ccc(Br)cc43)c(Cl)n(C)c2cc1C | 1.17 | 18.3 µM | 1.96 µM | 5.43 | 0.419 µM | 1.62 µM | 1.98 µM | 6.83 µM | 2.04 | 4.36 | 2.75 µM | 10 | 30.8 | > 100 | 0.799 µM | 1.71 µM | 7.33 µM | 1.41 | 16.6 | 3.41 |
| N#Cc1c2ccccc2c2nnc3cc(Cl)c(Cl)cc3n12 | 30 | 73.7 µM |  |  | 56.6 µM | > 100 µM | > 100 µM | > 100 µM | 32.4 | > 100 | > 100 µM | > 100 | > 100 | > 100 | 31.6 µM | 30 µM | > 100 µM | 29.6 | > 100 | 97.8 |
| COC(=O)c1ccc2c(c1)nc(-c1ccc(Cl)cc1)n2-c1cc(C(C)(C)C)[nH]n1 | 2.93 | 15.7 µM | 2.29 µM | 6.04 | 2.26 µM | 9.76 µM | 3.65 µM | 15.4 µM | 3.69 | 25.1 | 3.25 µM | 15.6 | 3.64 | > 100 | 2.72 µM | 1.57 µM | 5.77 µM | 3.93 | 11.2 | 7.35 |
| COc1ccc(Cc2ccccc2C(=O)O)c2ccccc12 |  | > 100 µM |  | 34.5 |  | 57.9 µM |  | > 100 µM |  | > 100 |  | 59.3 |  | > 100 |  |  | > 100 µM |  | > 100 | > 100 |
| Cc1nc2cc(O)c(O)cc2cc1Oc1ccc(NC(=O)Nc2ccc(Cl)c(Cl)c2)cc1 | 4.36 | > 32.5 µM | 10.3 µM | > 32.5 | > 32.5 µM | > 32.5 µM | 11.9 µM | > 32.5 µM | 7.26 | 25.2 | 8.6 µM | 26 | 11.6 | > 32.5 | 8.74 µM | 9.24 µM | > 32.5 µM | 7.62 | 20.7 | > 32.5 |
| COc1ccccc1Nc1nc(-c2cc3cccc(C(F)(F)F)c3oc2=O)cs1 | 0.162 | > 100 µM | 0.172 µM | 0.522 | 0.0366 µM | 38.9 µM | 0.126 µM | 11.9 µM | 0.263 |  | 1.63 µM | > 85.6 | 0.0535 | > 100 | 0.0468 µM | 0.0657 µM | 30.7 µM | 0.24 | > 71.4 | 5.55 |
| Cn1c(=O)c(F)c(Nc2ccc(I)cc2F)c2c(=O)n(C[C@@H](O)CO)cnc21 | 16.4 | 71.5 µM and > 4.12 µM | < 0.01 µM and 0.00271 µM |  | < 0.01 µM and 0.0103 µM | 0.0305 µM and 0.0752 µM | < 0.01 µM and 0.0029 µM | 19.5 µM and > 3.46 µM |  | > 100 | < 0.01 µM and 0.00177 µM | < 0.01 | 18.2 | > 96.5 | 12.7 µM and > 2.46 µM | 0.16 µM and 0.162 µM | 4 µM and > 2.93 µM | 9.12 | > 91.8 | > 100 |
| COc1cc(/C=C/C(=O)c2ccc(Nc3nc(Nc4ccc(F)cc4)nc(Nc4ccc(F)cc4)n3)cc2)cc(OC)c1OC | 3.18 | > 100 µM | 3.5 µM | > 100 | 15.7 µM | 49 µM | 9.36 µM | > 100 µM | > 100 | > 100 | 17.1 µM | 82.4 | 5.76 | > 100 | 4.69 µM | 2.74 µM | 7.49 µM | 1.81 | 35.2 | > 100 |
| Fc1ccc(Nc2nc(Nc3ccc(-c4nc5ccccc5[nH]4)cc3)nc(N3CCCC3)n2)cc1 | 2.74 | 8.05 µM | 1.81 µM | 3.73 | 12.8 µM | 25.7 µM | 2.54 µM | 5.62 µM | 4.21 | 15.3 | 2.17 µM | 4.81 | 2.28 | 5.58 | 2.89 µM | 2.17 µM | 4.57 µM | 2.28 | 6.3 | 12.1 |
